Experimental data published in patent publication US20250277012A1 (Protagonist Therapeutics, Inc., priority 2021, published 2025).
Like-named read-outs stand apart in the source and are kept apart here. Starred links: 1 amine or outer side, 2 acyl side, 3 side chain; linkers in the order of their positions; H or OH if unused. Positions of bridges follow the written chain, without caps; N, C: chain ends. Non-standard residues stand in square brackets, D forms with d. Residues, ends and D or L forms follow the SMILES beside them. Groups on a side chain read outwards from the residue. *: point of attachment. X1 = C[N+](C)(CCNC(=O)CCCCCCCCCCCCCCCCC(=O)O)CC(=O)*; X5 = CCCCCCCCCCCCCCCC(=O)NCC[N+](C)(C)CC(=O)*; Bip = N[C@@H](Cc1ccc(-c2ccccc2)cc1)C(=O)O; C18 diacid = O=C(O)CCCCCCCCCCCCCCCCC(=O)*; Dip = N[C@H](C(=O)O)C(c1ccccc1)c1ccccc1; γGlu = O=C(O)[C@H](CCC(=O)[*:2])N[*:1]; NHCH2CHPh2 = c1ccc(C(CN*)c2ccccc2)cc1; Ethylenediamine = C(CN[*:2])N[*:1]; Palmitoyl = CCCCCCCCCCCCCCCC(=O)*; NMeF = CN[C@@H](Cc1ccccc1)C(=O)O; β3hF = N[C@H](CC(=O)O)Cc1ccccc1; X3 = CCCCCCCCCCCCCCCC(=O)NCCC*; NMeK = CN[C@@H](CCCCN)C(=O)O; Isovaleryl = CC(C)CC(=O)*; hCys = N[C@@H](CCS)C(=O)O; Dap = NC[C@H](N)C(=O)O; AEEA = NCCOCCOCC(=O)O; Ahx = NCCCCCC(=O)O

What was measured:
ferroportin [1] = target: T1, ferroportin (Homo sapiens, UniProt Q9NP59); assay: T47D cell-based ferroportin internalization assay in presence of mouse serum albumin (MSA); design: a human breast carcinoma adherent cell line which endogenously expresses ferroportin; host or cells: T47D
T1 sequence (Q9NP59 1-571): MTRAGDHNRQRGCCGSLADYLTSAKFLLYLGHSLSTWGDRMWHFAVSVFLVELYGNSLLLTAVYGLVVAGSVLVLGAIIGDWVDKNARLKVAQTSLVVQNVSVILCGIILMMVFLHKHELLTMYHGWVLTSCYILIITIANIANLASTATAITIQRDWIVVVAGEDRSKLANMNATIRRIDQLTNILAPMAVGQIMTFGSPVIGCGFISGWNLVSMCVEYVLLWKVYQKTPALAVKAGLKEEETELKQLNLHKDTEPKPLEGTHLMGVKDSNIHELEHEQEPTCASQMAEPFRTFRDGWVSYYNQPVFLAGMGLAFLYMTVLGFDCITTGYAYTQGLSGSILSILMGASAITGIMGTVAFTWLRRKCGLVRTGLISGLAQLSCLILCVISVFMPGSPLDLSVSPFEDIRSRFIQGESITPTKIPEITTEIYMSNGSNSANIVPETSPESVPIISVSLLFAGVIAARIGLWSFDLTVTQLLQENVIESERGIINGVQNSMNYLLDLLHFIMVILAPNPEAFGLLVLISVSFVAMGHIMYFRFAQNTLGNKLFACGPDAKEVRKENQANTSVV
Outline: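 Peptide potency for inducing ferroportin internalization was measured in T47D cells in the presence of serum albumin. Cells grown in RPMI with fetal bovine serum were seeded in 96-well plates at 80-100 k cells per well in 100 ul and rested overnight. Dilution series of test peptides were preincubated 30 min at room temperature, then added to the cells after the medium was aspirated.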

ferroportin [2] = target: T1, ferroportin; assay: FPN activity assay: ferroportin-GFP internalization/degradation in HEK293 cells; assay type: cell-based; design: expressed in transfected cells; settings: read-out: FPN IC50
Method: Following internalization, the ferroporin protein is degraded.
A retro inverse peptide is a peptide with a reversed sequence in all D amino acids. An example is that Hy-Glu-Thr-His-NH2 becomes Hy-DHis-DThr-DGlu-NH2. The EC50 of these reference compounds for ferroportin internalization/degradation was determined according to the FPN activity assay described above. These peptides served as control standards.

[3] = T47D cells, 0.5% mouse serum albumin, 1 hr incubation
[4] = ferroportin-GFP HEK293 cells, at least 18 hours
[5] = Table 6E, T47D internalization assay with MSA
[6] = Table 6E, ferroportin-GFP internalization/degradation, at least 18 hours incubation

Row | SMILES | IC50 (ferroportin [1]; [3]) [µM] | DC50 (ferroportin [2]; [4]) [µM] | IC50 (ferroportin [1]; [5]) [µM] | DC50 (ferroportin [2]; [6]) [µM]
1 | CC(C)CC(=O)N[C@@H](CCC(=O)O)C(=O)N[C@H](C(=O)N[C@@H](Cc1c[nH]cn1)C(=O)N[C@H](C(=O)N1CCC[C@H]1C(=O)N[C@H]1CSSC[C@@H](C(=O)N[C@@H](CCCCNC(=O)COCCOCCNC(=O)COCCOCCNC(=O)[C@H](CN)NC(=O)CCCCCCCCCCCCCCCCC(=O)O)C(=O)N[C@H](CC(=O)N[C@H](CCCCN)C(N)=O)Cc2ccccc2)NC1=O)C(c1ccccc1)c1ccccc1)[C@@H](C)O [Compd 41] (Isovaleryl-ETH[Dip]PCCK([AEEA-AEEA-Dap-C18 diacid])[β3hF][dK]-NH2; disulfide 6-7) | 0.01 to 0.1 | 0.01 to 0.1 | – | –
2 | CCCCCCCCCCCCCCCC(=O)NCCCCCC(=O)NCCCC[C@H](NC(=O)C[C@H](Cc1ccccc1)NC(=O)[C@@H]1CSSC[C@H](NC(=O)CC(C)C)C(=O)N[C@@H]([C@@H](C)O)C(=O)N[C@@H](Cc2c[nH]cn2)C(=O)N[C@@H](C(c2ccccc2)c2ccccc2)C(=O)N2CCC[C@H]2C(=O)N[C@@H](C)C(=O)N[C@@H]([C@@H](C)CC)C(=O)N1)C(=O)N[C@H](CCCCN)C(N)=O [Compd 43] (Isovaleryl-CTH[Dip]PAIC[β3hF]K([Ahx-Palmitoyl])[dK]-NH2; disulfide 1-8) | > 0.5 | 0.001 to 0.01 | – | –
3 | CCCCCCCCCCCCCCCC(=O)NCCCCCC(=O)NCCCC[C@H](NC(=O)C[C@H](Cc1ccccc1)NC(=O)[C@@H](CCCCN)NC(=O)[C@@H](NC(=O)[C@H](C)NC(=O)[C@@H]1CSSC[C@H](NC(=O)[C@H](CCC(=O)O)NC(=O)CC(C)C)C(=O)N[C@@H](Cc2c[nH]cn2)C(=O)N[C@@H](C(c2ccccc2)c2ccccc2)C(=O)N1)[C@@H](C)CC)C(=O)N[C@H](CCCCN)C(=O)N[C@@H](C)C(N)=O [Compd 45] (Isovaleryl-ECH[Dip]CAI[dK][β3hF]K([Ahx-Palmitoyl])[dK]A-NH2; disulfide 2-5) | 0.001 to 0.01 | 0.01 to 0.1 | – | –
4 | CC(C)CC(=O)N[C@@H](CCC(=O)O)C(=O)N[C@H](C(=O)N[C@@H](Cc1c[nH]cn1)C(=O)N[C@H](C(=O)N1CCC[C@H]1C(=O)N[C@H]1CSSC[C@@H](C(=O)N[C@@H](CCCCNC(=O)COCCOCCNC(=O)COCCOCCNC(=O)CC[C@H](NC(=O)CCCCCCCCCCCCCCCCC(=O)O)C(=O)O)C(=O)N[C@H](CC(=O)N[C@H](CCCCN)C(N)=O)Cc2ccccc2)NC1=O)C(c1ccccc1)c1ccccc1)[C@@H](C)O [Compd ID 31, Isovaleric Acid-E-T-H-[Dpa]-P-[Cys]-[Cys]-[Lys(1PEG2_1PEG2_IsoGlu_C18_Diacid)]-[bhPhe]-[(D)Lys]-NH2] (Isovaleryl-ETH[Dip]PCCK([AEEA-AEEA-γGlu-C18 diacid])[β3hF][dK]-NH2; disulfide 6-7) | 0.01 to 0.1 | 0.01 to 0.1 | – | –
5 | COC(=O)CC[C@H](NC(=O)CC(C)C)C(=O)N[C@H](C(=O)N[C@@H](Cc1c[nH]cn1)C(=O)N[C@H](C(=O)N1CCC[C@H]1C(=O)N[C@H]1CSSC[C@@H](C(=O)N[C@@H](CCCCNC(=O)COCCOCCNC(=O)COCCOCCNC(=O)[C@H](CN)NC(=O)CCCCCCCCCCCCCCCCC(=O)O)C(=O)N[C@H](CC(=O)N[C@H](CCCCN)C(N)=O)Cc2ccccc2)NC1=O)C(c1ccccc1)c1ccccc1)[C@@H](C)O [Compd ID 42, Isovaleric Acid-[Glu_OMe]-T-H-[Dpa]-P-[Cys]-[Cys]-[Lys(1PEG2_1PEG2_Dap_C18_Diacid)]-[bhPhe]-[(D)Lys]-NH2] (Isovaleryl-E(OMe)TH[Dip]PCCK([AEEA-AEEA-Dap-C18 diacid])[β3hF][dK]-NH2; disulfide 6-7) | 0.01 to 0.1 | 0.01 to 0.1 | – | –
6 | CCCCCCCCCCCCCCCC(=O)NCCCC[C@H]1C(=O)N[C@@H](C(c2ccccc2)c2ccccc2)C(=O)N[C@@H](C(N)=O)CCCCNC(=O)CC[C@H](NC(=O)CC(C)C)C(=O)N[C@@H]([C@@H](C)O)C(=O)N[C@@H](Cc2c[nH]cn2)C(=O)N[C@@H](C(c2ccccc2)c2ccccc2)C(=O)N2CCC[C@H]2C(=O)N[C@H]2CSSC[C@H](NC2=O)C(=O)N1C [compound 142] (Isovaleryl-ETH[Dip]PCC[NMeK](Palmitoyl)[Dip][dK]-NH2; lactam 1-10; disulfide 6-7) | – | – | 0.01 to 0.1 | 0.001 to 0.01
7 | CCCCCCCCCCCCCCCC(=O)NCC[N+](C)(C)CC(=O)NCCCC[C@H]1C(=O)N[C@@H](C(c2ccccc2)c2ccccc2)C(=O)N[C@@H](C(N)=O)CCCCNC(=O)CC[C@H](NC(=O)CC(C)C)C(=O)N[C@@H]([C@@H](C)O)C(=O)N[C@@H](Cc2c[nH]cn2)C(=O)N[C@@H](C(c2ccccc2)c2ccccc2)C(=O)N2CCC[C@H]2C(=O)N[C@H]2CSSC[C@H](NC2=O)C(=O)N1C [compound 143] (Isovaleryl-ETH[Dip]PCC[NMeK](X5)[Dip][dK]-NH2; lactam 1-10; disulfide 6-7) | – | – | 0.001 to 0.01 | 0.01 to 0.1
8 | COC(=O)CC[C@H](NC(=O)CC(C)C)C(=O)N[C@H](C(=O)N[C@@H](Cc1c[nH]cn1)C(=O)N[C@H](C(=O)N1CCC[C@H]1C(=O)N[C@H]1CSSC[C@@H](C(=O)N(C)[C@@H](CCCCNC(=O)CCCCCNC(=O)C[N+](C)(C)CCNC(=O)CCCCCCCCCCCCCCCCC(=O)O)C(=O)N[C@H](C(=O)N[C@H](CCCCN)C(N)=O)C(c2ccccc2)c2ccccc2)NC1=O)C(c1ccccc1)c1ccccc1)[C@@H](C)OC [compound 147] (Isovaleryl-E(OMe)T(Me)H[Dip]PCC[NMeK]([Ahx-X1])[Dip][dK]-NH2; disulfide 6-7) | – | – | 0.1 to 0.5 | 0.01 to 0.1
9 | COC(=O)CC[C@H](NC(=O)CC(C)C)C(=O)N[C@@H](CO)C(=O)N[C@@H](Cc1c[nH]cn1)C(=O)N(C)[C@@H](Cc1ccccc1)C(=O)N1CCC[C@H]1C(=O)N[C@H]1CSSC[C@@H](C(=O)N(C)[C@@H](CCCCNC(=O)CCCCCNC(=O)C[N+](C)(C)CCNC(=O)CCCCCCCCCCCCCCCCC(=O)O)C(=O)N[C@H](C(=O)N[C@H](CCCCN)C(N)=O)C(c2ccccc2)c2ccccc2)NC1=O [compound 148] (Isovaleryl-E(OMe)SH[NMeF]PCC[NMeK]([Ahx-X1])[Dip][dK]-NH2; disulfide 6-7) | – | – | > 0.5 | > 0.5
10 | CCCCCCCCCCCCCCCC(=O)NCCCCCC(=O)NCCCC[C@H]1C(=O)N[C@@H](C(c2ccccc2)c2ccccc2)C(=O)NCCNC(=O)CC[C@H](NC(=O)CC(C)C)C(=O)N[C@@H]([C@@H](C)O)C(=O)N[C@@H](Cc2c[nH]cn2)C(=O)N[C@@H](C(c2ccccc2)c2ccccc2)C(=O)N2CCC[C@H]2C(=O)N[C@H]2CSSC[C@H](NC2=O)C(=O)N1C [compound 161] (Isovaleryl-ETH[Dip]PCC[NMeK]([Ahx-Palmitoyl])[Dip]; linker 1-C via Ethylenediamine; disulfide 6-7) | – | – | 0.01 to 0.1 | 0.001 to 0.01
11 | CCCCCCCCCCCCCCCC(=O)NCCCSCC[C@H](NC(=O)[C@@H]1CSSC[C@H](NC(=O)[C@@H]2CCCN2C(=O)[C@@H](NC(=O)[C@H](Cc2cnc[nH]2)NC(=O)[C@@H](NC(=O)[C@H](CCC(=O)O)NC(=O)CC(C)C)[C@@H](C)O)C(c2ccccc2)c2ccccc2)C(=O)N1)C(=O)N[C@H](C(=O)N[C@H](CCCCN)C(N)=O)C(c1ccccc1)c1ccccc1 [compound 162] (Isovaleryl-ETH[Dip]PCC[hCys](X3)[Dip][dK]-NH2; disulfide 6-7) | – | – | 0.001 to 0.01 | 0.01 to 0.1
12 | CCCCCCCCCCCCCCCC(=O)NCCCCCC(=O)NCCCC[C@@H](C(=O)NCC(c1ccccc1)c1ccccc1)N(C)C(=O)[C@@H]1CSSC[C@H](NC(=O)[C@@H]2CCCN2C(=O)[C@@H](NC(=O)[C@H](Cc2cnc[nH]2)NC(=O)[C@@H](NC(=O)[C@H](CCC(=O)O)NC(=O)CC(C)C)[C@@H](C)O)C(c2ccccc2)c2ccccc2)C(=O)N1 [compound 163] (Isovaleryl-ETH[Dip]PCC[NMeK]([Ahx-Palmitoyl])-NHCH2CHPh2; disulfide 6-7) | – | – | 0.001 to 0.01 | 0.01 to 0.1
13 | CC(C)CC(=O)N[C@@H](CCC(=O)O)C(=O)N[C@H](C(=O)N[C@@H](Cc1c[nH]cn1)C(=O)N[C@H](C(=O)N1CCC[C@H]1C(=O)N[C@H]1CSSC[C@@H](C(=O)N(C)[C@@H](CCCCNC(=O)CCCCCNC(=O)C[N+](C)(C)CCNC(=O)CCCCCCCCCCCCCCCCC(=O)O)C(=O)N[C@@H](Cc2ccc(-c3ccccc3)cc2)C(=O)N[C@H](CCCCN)C(N)=O)NC1=O)C(c1ccccc1)c1ccccc1)[C@@H](C)O [compound 183] (Isovaleryl-ETH[Dip]PCC[NMeK]([Ahx-X1])[Bip][dK]-NH2; disulfide 6-7) | – | – | 0.01 to 0.1 | 0.01 to 0.1
